Data: patent publication US12195482B1 (Arcus Biosciences, Inc., priority 2022, dated 2025)

What was measured:
[1] = target: T1, recombinant human MER (Homo sapiens, UniProt Q12866); test: Biochemical potency, HTRF KinEASE-TK kinase assay; details: 1 nM MER, 700 μM ATP
T1 construct: purchased Invitrogen
T1 sequence (Q12866 21-999): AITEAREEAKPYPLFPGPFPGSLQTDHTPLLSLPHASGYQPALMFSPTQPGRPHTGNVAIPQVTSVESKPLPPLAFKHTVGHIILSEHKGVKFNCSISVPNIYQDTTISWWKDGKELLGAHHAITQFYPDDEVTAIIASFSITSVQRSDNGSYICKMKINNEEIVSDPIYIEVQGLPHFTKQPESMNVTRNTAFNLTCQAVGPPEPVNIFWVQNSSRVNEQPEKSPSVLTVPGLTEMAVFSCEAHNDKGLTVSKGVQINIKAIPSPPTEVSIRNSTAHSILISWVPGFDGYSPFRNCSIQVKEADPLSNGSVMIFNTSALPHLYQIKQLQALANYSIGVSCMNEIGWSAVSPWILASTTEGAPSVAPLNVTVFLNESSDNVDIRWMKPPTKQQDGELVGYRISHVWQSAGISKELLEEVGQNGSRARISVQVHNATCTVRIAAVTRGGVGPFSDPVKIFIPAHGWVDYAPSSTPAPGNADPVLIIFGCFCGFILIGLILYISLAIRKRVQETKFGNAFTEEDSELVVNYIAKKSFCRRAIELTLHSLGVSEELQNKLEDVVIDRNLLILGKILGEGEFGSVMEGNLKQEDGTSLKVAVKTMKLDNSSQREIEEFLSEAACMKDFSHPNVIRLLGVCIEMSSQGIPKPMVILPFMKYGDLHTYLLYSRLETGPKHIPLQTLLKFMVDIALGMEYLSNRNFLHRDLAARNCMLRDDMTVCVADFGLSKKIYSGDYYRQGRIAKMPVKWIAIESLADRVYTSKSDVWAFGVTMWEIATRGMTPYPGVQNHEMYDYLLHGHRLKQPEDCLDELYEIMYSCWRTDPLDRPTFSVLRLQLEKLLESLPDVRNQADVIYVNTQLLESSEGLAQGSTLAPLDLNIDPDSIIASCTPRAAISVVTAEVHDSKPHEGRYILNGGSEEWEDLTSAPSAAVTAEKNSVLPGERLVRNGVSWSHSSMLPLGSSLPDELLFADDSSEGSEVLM
How it was run: (§1)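 Phosphorylation of a biotinylated tyrosine-kinase peptide (800 nM) by AXL (5 nM) or TYRO3/MER (1 nM) is measured at 700 µM ATP after 2 h at room temperature, following 1 h enzyme–compound preincubation. Signal is the time-resolved FRET ratio, converted to percent activity.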

[2] = target: T2, recombinant human TYRO3 (Homo sapiens, UniProt Q06418); test: Biochemical potency, HTRF KinEASE-TK kinase assay; details: 1 nM TYRO3, 700 μM ATP
T2 construct: purchased Invitrogen
T2 sequence (Q06418 41-890): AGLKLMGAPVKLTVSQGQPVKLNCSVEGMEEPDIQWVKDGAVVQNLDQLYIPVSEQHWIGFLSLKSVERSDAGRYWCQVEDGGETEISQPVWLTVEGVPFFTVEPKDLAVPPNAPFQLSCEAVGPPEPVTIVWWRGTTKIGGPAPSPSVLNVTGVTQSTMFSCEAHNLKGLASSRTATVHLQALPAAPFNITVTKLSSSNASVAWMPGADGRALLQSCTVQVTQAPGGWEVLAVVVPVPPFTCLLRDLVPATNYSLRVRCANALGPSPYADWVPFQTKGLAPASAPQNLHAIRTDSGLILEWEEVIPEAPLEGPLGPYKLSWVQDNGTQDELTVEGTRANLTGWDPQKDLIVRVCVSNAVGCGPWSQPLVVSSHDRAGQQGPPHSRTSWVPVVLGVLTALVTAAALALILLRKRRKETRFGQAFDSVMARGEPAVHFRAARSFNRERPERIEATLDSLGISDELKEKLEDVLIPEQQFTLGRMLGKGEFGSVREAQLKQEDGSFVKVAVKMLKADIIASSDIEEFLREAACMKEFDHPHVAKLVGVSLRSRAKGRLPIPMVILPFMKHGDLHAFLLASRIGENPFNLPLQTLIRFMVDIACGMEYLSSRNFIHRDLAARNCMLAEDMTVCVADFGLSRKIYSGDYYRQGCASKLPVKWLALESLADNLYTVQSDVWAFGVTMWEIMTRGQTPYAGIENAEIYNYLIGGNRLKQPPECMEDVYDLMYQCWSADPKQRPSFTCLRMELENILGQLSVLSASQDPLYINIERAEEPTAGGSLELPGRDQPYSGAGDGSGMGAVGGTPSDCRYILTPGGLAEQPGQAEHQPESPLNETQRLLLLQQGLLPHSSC
How it was run: as §1

Row | SMILES | IC50 [1] [nM] | IC50 [2] [nM]
1 | Cc1ccccc1-c1ccc(-c2n[nH]c3ncc(-c4ccc5c(c4)CC[C@@H](N4C6COCC4C6)CC5)cc23)nc1 [Example 98, 6-[(7S)-2-{3-[5-(2-Methylphenyl)pyridin-2-yl]-1H-pyrazolo[3,4-b]pyridin-5-yl}-6,7,8,9-tetrahydro-5H-benzo[7]annulen-7-yl]-3-oxa-6-azabicyclo[3.1.1]heptane] | > 1000 | > 1000
2 | Cc1cccnc1-c1ccc(-c2c[nH]c3ncc(-c4ccc5c(c4)CC[C@@H](N4C[C@@H]6C[C@H]4CO6)CC5)cc23)cc1 [Example 187, (4S)-5-[(7S)-2-{3-[4-(3-Methylpyridin-2-yl)phenyl]-1H-pyrrolo[2,3-b]pyridin-5-yl}-6,7,8,9-tetrahydro-5H-benzo[7]annulen-7-yl]-2-oxa-5-azabicyclo[2.2.1]heptane] | 100 to 1000 | < 100
3 | CCc1cccnc1-c1ccc(-c2n[nH]c3ncc(-c4ccc5c(c4)CC[C@@H](N4C6COCC4C6)CC5)cc23)cc1 [Example 182, 6-[(7S)-2-{3-[4-(3-Ethylpyridin-2-yl)phenyl]-1H-pyrazolo[3,4-b]pyridin-5-yl}-6,7,8,9-tetrahydro-5H-benzo[7]annulen-7-yl]-3-oxa-6-azabicyclo[3.1.1]heptane] | 100 to 1000 | < 100
4 | Cc1cc(-c2n[nH]c3ncc(-c4ccc5c(c4)CC[C@@H](N4C6COCC4C6)CC5)cc23)ccc1-c1ccccn1 [Example 159, 6-[(7S)-2-{3-[3-Methyl-4-(pyridin-2-yl)phenyl]-2H-pyrazolo[3,4-b]pyridin-5-yl}-6,7,8,9-tetrahydro-5H-benzo[7]annulen-7-yl]-3-oxa-6-azabicyclo[3.1.1]heptane] | 100 to 1000 | 100 to 1000
5 | O=C1CCCN1c1cccnc1-c1ccc(-c2n[nH]c3ncc(-c4ccc5c(c4)CC[C@@H](N4C6COCC4C6)CC5)cc23)cc1 [Example 177, 1-[2-(4-{5-[(7S)-7-{3-Oxa-6-azabicyclo[3.1.1]heptan-6-yl}-6,7,8,9-tetrahydro-5H-benzo[7]annulen-2-yl]-1H-pyrazolo[3,4-b]pyridin-3-yl}phenyl)pyridin-3-yl]pyrrolidin-2-one] | 100 to 1000 | 100 to 1000
6 | CC(C)(O)c1ccccc1-c1ccc(-c2n[nH]c3ncc(-c4ccc5c(c4)CC[C@@H](N4C6COCC4C6)CC5)cc23)cn1 [Example 113, 2-[2-(5-{5-[(7S)-7-{3-Oxa-6-azabicyclo[3.1.1]heptan-6-yl}-6,7,8,9-tetrahydro-5H-benzo[7]annulen-2-yl]-1H-pyrazolo[3,4-b]pyridin-3-yl}pyridin-2-yl)phenyl]propan-2-ol] | 100 to 1000 | 100 to 1000
7 | Cn1nccc1-c1ccc(-c2n[nH]c3ncc(-c4ccc5c(c4)CC[C@@H](N4C6COCC4C6)CC5)cc23)cc1 [Example 109, 6-[(7S)-2-{3-[4-(1-Methyl-1H-pyrazol-5-yl)phenyl]-1H-pyrazolo[3,4-b]pyridin-5-yl}-6,7,8,9-tetrahydro-5H-benzo[7]annulen-7-yl]-3-oxa-6-azabicyclo[3.1.1]heptane] | 100 to 1000 | 100 to 1000
8 | Cc1ncc(C)c(-c2ccc(-c3c[nH]c4ncc(-c5ccc6c(c5)CC[C@@H](N5C7COCC5C7)CC6)cc34)cc2)n1 [Example 123, 6-[(7S)-2-{3-[4-(2,5-Dimethylpyrimidin-4-yl)phenyl]-1H-pyrrolo[2,3-b]pyridin-5-yl}-6,7,8,9-tetrahydro-5H-benzo[7]annulen-7-yl]-3-oxa-6-azabicyclo[3.1.1]heptane] | < 100 | < 100
9 | Cc1cccnc1-c1ccc(-c2c[nH]c3ncc(-c4ccc5c(c4)CC[C@@H](N4C6COCC4C6)CC5)cc23)nc1 [Example 96, 3-Methyl-6′-{5-[(7S)-7-{3-oxa-6-azabicyclo[3.1.1]heptan-6-yl}-6,7,8,9-tetrahydro-5H-benzo[7]annulen-2-yl]-1H-pyrrolo[2,3-b]pyridin-3-yl}-2,3′-bipyridine] | 100 to 1000 | < 100
10 | CC(C)(C#N)c1cccnc1-c1ccc(-c2c[nH]c3ncc(-c4ccc5c(c4)CC[C@@H](N4C6COCC4C6)CC5)cc23)cc1 [Example 21, 2-Methyl-2-[2-[4-[5-[(7S)-7-(3-oxa-6-azabicyclo[3.1.1]heptan-6-yl)-6,7,8,9-tetrahydro-5H-benzo[7]annulen-3-yl]-1H-pyrrolo[2,3-b]pyridin-3-yl]phenyl]pyridin-3-yl]propanenitrile] | 100 to 1000 | < 100
11 | Cc1nc(-c2ccc(-c3n[nH]c4ncc(-c5ccc6c(c5)CC[C@@H](N5C7COCC5C7)CC6)cc34)cc2)n(C)n1 [Example 23, 6-[(7S)-2-{3-[4-(1,3-Dimethyl-1H-1,2,4-triazol-5-yl)phenyl]-1H-pyrazolo[3,4-b]pyridin-5-yl}-6,7,8,9-tetrahydro-5H-benzo[7]annulen-7-yl]-3-oxa-6-azabicyclo[3.1.1]heptane] | 100 to 1000 | < 100
12 | C[C@H]1COC(=O)N1c1cccnc1-c1ccc(-c2n[nH]c3ncc(-c4ccc5c(c4)CC[C@@H](N4C6COCC4C6)CC5)cc23)cc1 [Example 125, (4S)-4-Methyl-3-[2-(4-{5-[(7S)-7-{3-oxa-6-azabicyclo[3.1.1]heptan-6-yl}-6,7,8,9-tetrahydro-5H-benzo[7]annulen-2-yl]-1H-pyrazolo[3,4-b]pyridin-3-yl}phenyl)pyridin-3-yl]-1,3-oxazolidin-2-one] | < 100 | < 100
13 | O=C(c1cccnc1-c1ccc(-c2n[nH]c3ncc(-c4ccc5c(c4)CC[C@@H](N4C6COCC4C6)CC5)cc23)cc1)N1CCCC1 [Example 4, 6-[(7S)-2-(3-{4-[3-(Pyrrolidine-1-carbonyl)pyridin-2-yl]phenyl}-1H-pyrazolo[3,4-b]pyridin-5-yl)-6,7,8,9-tetrahydro-5H-benzo[7]annulen-7-yl]-3-oxa-6-azabicyclo[3.1.1]heptane] | 100 to 1000 | 100 to 1000
14 | Cc1cccnc1-c1ccc(-c2n[nH]c3ncc(-c4ccc5c(c4)CC[C@@H](N4C6COCC4C6)CC5)cc23)nc1 [Example 26, 3-Methyl-6′-{5-[(7S)-7-{3-oxa-6-azabicyclo[3.1.1]heptan-6-yl}-6,7,8,9-tetrahydro-5H-benzo[7]annulen-2-yl]-1H-pyrazolo[3,4-b]pyridin-3-yl}-2,3′-bipyridine] | 100 to 1000 | 100 to 1000
15 | FC(F)Oc1cccnc1-c1ccc(-c2n[nH]c3ncc(-c4ccc5c(c4)CC[C@@H](N4C6COCC4C6)CC5)cc23)cc1 [Example 99, 6-[(7S)-2-(3-{4-[3-(Difluoromethoxy)pyridin-2-yl]phenyl}-1H-pyrazolo[3,4-b]pyridin-5-yl)-6,7,8,9-tetrahydro-5H-benzo[7]annulen-7-yl]-3-oxa-6-azabicyclo[3.1.1]heptane] | 100 to 1000 | 100 to 1000
16 | Cn1nncc1-c1ccc(-c2n[nH]c3ncc(-c4ccc5c(c4)CC[C@@H](N4C6COCC4C6)CC5)cc23)cc1 [Example 13, 6-[(7S)-2-{3-[4-(1-Methyl-1H-1,2,3-triazol-5-yl)phenyl]-1H-pyrazolo[3,4-b]pyridin-5-yl}-6,7,8,9-tetrahydro-5H-benzo[7]annulen-7-yl]-3-oxa-6-azabicyclo[3.1.1]heptane] | > 1000 | > 1000
